Where “and” joins values, the source holds several entries; their conditions need not be identical. Equal entries are not always repeated. Where two headings read alike, the source gives them in different places.
How the values were obtained:
[1] = system: human pancreatic tumor xenograft Panc-1; conditions: for Efficacy Score = 10*(TWd1−TWdn)/TWd1: single dose IV
From the text: [formula] where TTE is expressed in days, endpoint volume is in mm^3, b is the intercept, and m is the slope of the line obtained by linear regression of a log-transformed tumor growth data set. The data set is comprised of the first observation that exceeded the study endpoint volume and the three consecutive observations that immediately preceded the attainment of the endpoint volume. […] Animals classified as TR (treatment-related) deaths or NTRM (non-treatment-related metastasis) deaths are assigned a TTE value equal to the day of death. Animals classified as NTR (non-treatment-related) deaths are excluded from TTE calculations. Treatment efficacy was determined from tumor growth delay (TGD), which is defined as the increase in the median TTE for a treatment group compared to the control group: TGD=T−C, expressed in days, or as a percentage of the median TTE of the control group:
Treatment may cause partial regression (PR) or complete regression (CR) of the tumor in an animal. In a PR response, the tumor volume is 50% or less of its Day 1 volume for three consecutive measurements during the course of the study, and equal to or greater than 13.5 mm^3 for one or more of these three measurements. In a CR response, the tumor volume is less than 13.5 mm^3 for three consecutive measurements during the course of the study. An animal with a CR response at the termination of a study is additionally classified as a long-term tumor-free survivor (LTTFS).
With respect to toxicity, the animals were weighed daily on Days 1-5, then twice weekly until the completion of the study. The mice were examined frequently for overt signs of any adverse, drug-related side effects. […] The log rank test was employed to analyze the significance of the difference between the TTE values of a drug-treated group and the vehicle-treated control group. The log rank test analyzes the data for all animals except the NTR deaths. The two-tailed statistical analyses were conducted at P=0.05. The group median tumor growth curves show the median tumor volume (MTV) as a function of time. When an animal exited the study due to tumor size or TR death, the final tumor volume recorded for the animal was included with the data used to calculate the median volume at subsequent time points. If more than one death occurred in a treatment group, the tumor growth curve for that group was truncated at the time of the second death.
Human Panc-1 pancreatic carcinomas were maintained in athymic nude mice. A tumor fragment (1 mm^3) was implanted s.c. into the right flank of each test mouse. Tumors were monitored twice weekly and then daily as their size approached 200-400 mm^3 with a mean of 250-300 mm^3. On Day 1 of the study, the animals were sorted into groups of six mice, with tumor sizes of 171.5-486.0 mm^3 and group mean tumor sizes of 269.7-275.0 mm^3. Mice were sorted into groups containing six mice each, and treated according to the protocol in Tables 2A and 2B. All treatments were administered intravenously. Control Group 1 mice received the ethanol 5% and Liposyn II 95% vehicle, once on Day 1 (qd×1). […] Dosing volumes were 0.5 ml/20 g body weight for qd×1 dosing regimens and 0.3 mL/20 g body weight for the qod×5 or q4d×4 dosing schedules. Dosing volumes were scaled to the body weight of each animal. The vehicle was given to Group 1 mice in a single dose on Day 1 (qd×1).

[2] = system: VM46 (resistant variant of human colon carcinoma HCT 116); test: In vitro cytotoxicity, cell colony formation assay, VM46; format: cell-based; conditions: 72 h drug incubation
Experimental: (§1) The cells were incubated in a CO2 incubator at 37° C. for 5 h for attachment to the bottom of Petri dishes. The compound of the present invention was made up fresh in medium at ten times the final concentration, and then 0.3 mL of this stock solution was added to the 2.7 mL of medium in the dish. The cells were then incubated with drugs for 72 h at 37° C. At the end of incubation the drug-containing media were decanted, the dishes were rinsed with 4 mL of Hank's Balance Salt Solution (HBSS), 5 mL of fresh medium was added, and the dishes were returned to the incubator for colony formation. The cell colonies were counted using a colony counter after incubation for 7 days. Cell survival was calculated and the values of IC50 (the drug concentration producing 50% inhibition of colony formation) were determined for each tested compound.
Identical assessments were carried out using VM46 (resistant variant of human colon carcinoma HCT 116 obtained from Dr. Li-Xi, M.D, Ph.D., California Pacific Medical Center, CA).

[3] = system: HCT 116 human colon carcinoma; test: In vitro cytotoxicity, cell colony formation assay, HCT116; format: cell-based; conditions: 72 h drug incubation
Experimental: as §1

[4] = Group 2: 20 mg/kg IV qod × 5, 6 mice
[5] = Group 3: 30 mg/kg IV q4d × 4, 6 mice
[6] = Group 4: 120 mg/kg IV qd × 1, 6 mice
[7] = Group 5: 60 mg/kg IV qd × 5 (Table 2A), 6 mice

CC(=O)OC12COC1CC(O)C1(C)C(=O)C(OC(=O)C3CCCC3)C3=C(C)C(OC(=O)C(O)C(NC(=O)OC(C)C)c4cccs4)CC(O)(C(OC(=O)c4ccccc4)C21)C3(C)C (stereo not drawn) [Compound 9091]
antitumor effectiveness among IV regimens ([1]; 30 mg/kg q4d×4 IV regimen): most effective
No. of CR [1, 4]: 0
No. of LTTES [1, 4]: 0
No. of NTR [1, 4]: 0
No. of PR [1, 4]: 1
No. of TR [1, 4]: 5
Max % BW Loss; Day ([1]; Group 2: 20 mg/kg IV qod × 5, Day 10): −15.7%;
Tumor Burden Median (n), Day 56 ([1]; Group 2: 20 mg/kg IV qod × 5, n=1): 108 (1) mm^3
Median TTE ([1]; Group 2: 20 mg/kg IV qod × 5, not evaluable for efficacy (five TR deaths)): 10.0 days
T − C ([1]; Group 3: 30 mg/kg IV q4d × 4): 40.2 days
% TGD ([1]; Group 3: 30 mg/kg IV q4d × 4, 30 mg/kg): 254%
No. of CR [1, 5]: 1
No. of LTTES [1, 5]: 1
No. of NTR [1, 5]: 0
No. of PR [1, 5]: 5
No. of TR [1, 5]: 0
Tumor Burden Median (n), Day 56 (MTV) ([1]; Group 3: 30 mg/kg IV q4d × 4, Day 56): 40 mm^3
Tumor Burden Median (n), Day 56 (MTV) ([1]; Group 3: 30 mg/kg IV q4d × 4, Day 56, 30 mg/kg): 40.25 (6) mm^3
Median TTE ([1]; Group 3: 30 mg/kg IV q4d × 4, endpoint 1200 mg): 56.0 days
T − C ([1]; Group 4: 120 mg/kg IV qd × 1): 40.2 days
% TGD ([1]; Group 4: 120 mg/kg IV qd × 1, 120 mg/kg): 254%
No. of CR [1, 6]: 0
No. of LTTES [1, 6]: 0
No. of NTR [1, 6]: 2
No. of PR [1, 6]: 6
No. of TR [1, 6]: 0
Tumor Burden Median (n), Day 56 (MTV) ([1]; Group 4: 120 mg/kg IV qd × 1, Day 56, 120 mg/kg): 58 mm^3 and 57.5 (6) mm^3
Median TTE ([1]; Group 4: 120 mg/kg IV qd × 1, endpoint 1200 mg): 56.0 days
T − C ([1]; Group 5: 60 mg/kg IV qd × 5 (Table 2A)): 40.2 days
% TGD ([1]; Group 5: 60 mg/kg IV qd × 5 (Table 2A), 60 mg/kg): 254%
No. of CR [1, 7]: 0
No. of LTTES [1, 7]: 0
No. of NTR [1, 7]: 0
No. of PR [1, 7]: 6
No. of TR [1, 7]: 0
Tumor Burden Median (n), Day 56 (MTV) ([1]; Group 5: 60 mg/kg IV qd × 5 (Table 2A), Day 56, 60 mg/kg): 126 mm^3 and 126 (6) mm^3
Median TTE ([1]; Group 5: 60 mg/kg IV qd × 5 (Table 2A), endpoint 1200 mg): 56.0 days
end-of-study survivors ([1]; each of 30 mg/kg q4d×4, 120 mg/kg and 60 mg/kg single dose IV, 6 mice per group): six
Efficacy Score = 10*(TWd1−TWdn)/TWd1 ([1]; Dose 60, best score 10): 7.7
Efficacy Score = 10*(TWd1−TWdn)/TWd1 ([1]; Dose 120, best score 10): 8.6
IC50 [2]: 1.9 nM and 1.87 nM
IC50 [3]: 0.6 nM and 0.63 nM
